Source: article PMC10292217, “Gene-nutrient interactions that impact magnesium homeostasis increase risk for neural tube defects in mice exposed to dolutegravir” (Frontiers in Cell and Developmental Biology, 2023)
Where two headings read alike, the source gives them in different places.

Tests used:
[1] = Plasma DTG pharmacokinetics (LC-MS/MS, NCA) in LM/Bc mice; assay type: in vivo, mouse; conditions: for Tmax / half-life / Cmax / AUC(0-t): female, mouse, plasma; for half-life: read-out: t½ (converted); for Cmax / AUC(0-t): high Mg2+ soy diet; for AUC(0-t): read-out: AUC 0-24
Method: Baseline blood samples were collected via cheek bleed (submandibular vein) from all animals prior to timed matings, and again on GD 9.5. A Goldenrod sterile lancet (MEDIpoint, Inc., Mineola, NY) was used to lance the submandibular vein, and 3-4 drops (∼100 µL) of blood was collected into a Microvette CB 300 Lithium Heparin plasma separator tube (SARSTEDT AG and Co., Germany) and then centrifuged at 2000 g for 8 min. Plasma samples were frozen at −80 °C for LCMS analysis of DTG or ICP-MS determination of cations. DTG detection and quantification was performed at Creighton University using a previously published method ([Bennetto-Hood et al., 2014]) with minor modifications. Briefly, a seven-point calibration curve ranging from 0.1 to 100 μg/mL was challenged with quality control vials at known concentrations of 5, 20, and 80 μg/mL. All controls and calibrators with known drug concentrations were added to DTG-free mouse plasma. To initiate protein precipitation, 120 µL of acetonitrile containing 10 ng/mL of d5- DTG internal standard (Cayman Chemical, Ann Arbor, MI) was added to 20 µL mouse plasma (calibrators, controls, unknown samples), and mixed for 2 min on an orbital shaker (1500 rpm), followed by centrifugation at 2,655 g for 5 min. […] LC-MSMS separation was achieved using Agilent 1200 liquid chromatography devices and an AB Sciex 3200 Q-Trap mass spectrometer. The mobile phase consisted of an isocratic gradient of 0.1% formic acid in water:0.1% formic acid in acetonitrile (60:40) with a flow rate of 0.475 mL/min across an XBridge C18 column (Waters, Milford, MA, United States). […] Strains and treatments were compared by 2-way ANOVA followed by post hoc analyses. Pairwise comparisons of the proportion of affected embryos in each litter between strains and treatments were evaluated by the Fisher least significant difference method. Index value pairwise comparisons were evaluated using the Kruskal–Wallis nonparametric test in Sigma XL (v9.0). Comparisons of cation levels in urine and plasma between strains and between diets as well as the effect of DTG on the incidence of NTDs in LM/Bc dams was performed by one-way ANOVA followed by Dunnett’s multiple comparisons test using GraphPad Prism version 9.5.0 for Windows. The level of significance p < 0.05 was used for all analyses. DTG pharmacokinetics were evaluated by noncompartmental analysis (NCA) using PKsolver ([Zhang et al., 2010]).

[2] = cited from earlier work
C3H/HeJ mice = tested on: C3H/HeJ mice; design: method as in Bade et al., 2021; conditions: 50 mg/kg/d DTG oral gavage from GD 0.5; 1 NTD affected pup in 17 litters; ref Bade et al., 2021; cited from earlier work
[3] = tested on: Madin-Darby canine kidney II cells; design: method as in Zamek-Gliszczynski et al., 2019; conditions: ref Zamek-Gliszczynski et al., 2019; cited from earlier work
FOLR1 = tested on: FOLR1; design: method as in Cabrera et al., 2019; conditions: human placental trophoblast cells; ref Cabrera et al., 2019; cited from earlier work
hESC morphogenesis model = tested on: hESC morphogenesis model; design: method as in Kirkwood-Johnson et al., 2021; conditions: ref Kirkwood-Johnson et al., 2021; cited from earlier work
[4] = tested on: P19C5 mouse embryonal carcinoma cell; design: method as in Kirkwood-Johnson et al., 2021; conditions: exposure within the first 1-2 days; ref Kirkwood-Johnson et al., 2021; cited from earlier work
rabbits = conditions: 2020, cited from earlier work
zebrafish embryos = conditions: exposure initiated at 3 h post-fertilization; ref Cabrera et al., 2019; cited from earlier work
[5] = 750 mg/kg/day, pregnant LM/Bc mice, 10 daily oral doses DTG750
[6] = 750 mg/kg/day, pregnant LM/Bc mice, 10 daily oral doses DTG750 GD 0.5-GD 9.5
[7] = 750 mg/kg, non-pregnant LM/Bc mice, single oral dose DTG750
[8] = non-pregnant LM/Bc mice, single oral dose DTG 750 mg/kg
[9] = non-pregnant mouse single dose DTG750 vs human 50 mg single dose
[10] = non-pregnant mouse single dose DTG750 vs human 100 mg single dose
[11] = non-pregnant mouse single dose DTG750 vs human 100 mg × 7d
[12] = pregnant mouse 10 daily doses DTG750 vs pregnant women 2nd trimester 50 mg/d
[13] = human, non-pregnant, 50 mg single dose, ref Min et al., 2010
[14] = human, non-pregnant, 100 mg single dose, ref Min et al., 2010
[15] = human, non-pregnant, 100 mg × 7d, ref Wang et al., 2019
[16] = pregnant women, 2nd trimester, 50 mg/d, ref Mulligan et al., 2018

Molecule `C[C@@H]1CCO[C@H]2Cn3cc(C(=O)NCc4ccc(F)cc4F)c(=O)c(O)c3C(=O)N12` [DTG, Dolutegravir] has a Tmax [1, 5] of 2 h, a half-life [1, 5] of 4.4 h and a Cmax [1, 6] of 128 µg/mL. It also gave an AUC(0-t) [1, 6] of 847 µg·h/mL, a Tmax [1, 7] of 2 h and a half-life [1, 7] of 6.3 h. For the same molecule, the Cmax [1, 8] was 133 µg/mL, the AUC(0-t) [1, 8] was 1300 µg·h/mL and the “AUC 0-24, mouse multiplication factor vs human” value [1, 9] was 18.4 x. The “Cmax, mouse multiplication factor vs human” value (“Cmax … vs human” for short) [1, 9] was 28.9 x, the “AUC 0-24, mouse multiplication factor vs human” value [1, 10] was 9.9 x and the “Cmax … vs human” value [1, 10] was 16.4 x. For the same molecule, the “AUC 0-24, mouse multiplication factor vs human” value [1, 11] was 14.1 x, the “Cmax … vs human” value [1, 11] was 19.8 x and the “AUC 0-24, mouse multiplication factor vs human” value [1, 12] was 17.8 x. For the same molecule, the “Cmax … vs human” value [1, 12] was 35.3 x, the “AUC 0-24” value [2, 13] was 70.8 (50 mg single dose) ^1 µg*h/mL and the Cmax [2, 13] was 4.6 (50 mg single dose) ^1 µg/mL. For the same molecule, the Tmax [2, 13] was 1.25 h (50 mg single dose) ^1, the t½ [2, 13] was 13–14 h (50 mg single dose) ^1 and the “AUC 0-24” value [2, 14] was 131 (100 mg single dose) ^1 µg*h/mL. The Cmax [2, 14] was 8.1 (100 mg single dose) ^1 µg/mL, the “AUC 0-24” value [2, 15] was 92.3 (100 mg × 7d) ^2 µg*h/mL and the Cmax [2, 15] was 6.7 (100 mg × 7d) ^2 µg/mL. For the same molecule, the “AUC 0-24” value [2, 16] was 47.6 (33.4–63.7) (2nd trimester, 50 mg/d) ^3 µg*h/mL, the Cmax [2, 16] was 3.62 (2.57–4.63) µg/mL and the Tmax [2, 16] was 2 h (2nd trimester, 50 mg/d) ^3. The t½ [2, 16] was 11 h (2nd trimester, 50 mg/d) ^3, the NTD-affected litters (C3H/HeJ mice) was 5.8% and the “effect on inhibition of folate transport” value [3] was “did not find a significant DTG or INSTI class effect”. The “FOLR1-mediated uptake of folic acid” value (FOLR1) was “partially inhibited”, the “effect on 3D morphogenesis” value (hESC morphogenesis model) was “altered growth and expression of genes involved in body patterning” and the “growth and axial elongation” value [4] was “concentration-dependent inhibition of growth and axial elongation”. The “DTG-related maternal or developmental toxicity” value (rabbits; oral doses up to 1000 mg/kg/d, GD 6 to GD 18, ref Stanislaus et al.) was “no significant evidence”, the NOAEL (rabbits; preclinical studies, ref Stanislaus et al.) was 1000 mg/kg/day and the mortality (zebrafish embryos) was “Significant mortality”.
